Test results published in US9795570B2, “Modulation of macrophage phenotype by emodin” (University of South Carolina, priority 2016, dated 2017).

Legend:
EO771 tumors = assay: EO771 breast tumor model in C57BL/6 mice; type: in vivo
Protocol: (§1) C57BL/6 and BALB/c mice (8-12 weeks, female) were purchased from Jackson Labs (Bar Harbor, Me.). They were housed at the University of South Carolina Animal Research Facility, and all procedures were approved by the Institutional Animal Care and Use Committee. EO771 or 4T1 cells (2×10^5) in 20 μL of PBS were injected into the 4th pair of mammary glands on C57BL/6 mice or BALB/C, respectively, on Day 0. Starting on Day 1, emodin (40 mg/kg) or vehicle (2% DMSO) was injected intraperitoneally in 1 ml PBS once daily. The tumor size was measured using a caliper every 2-4 days, and the tumor volume was calculated using a formula: V (mm^3)=L (major axis)×W^2 (minor axis)/2. Mice were sacrificed at various time points.
(§2) At sacrifice, tumors were embedded in OCT. They were then cut into 8 μm thick frozen sections and placed on slides. For immunohistochemistry staining, the sections were fixed with 4% paraformaldehyde for 10 min, and then blocked with 0.01 M glycine containing 0.1% Triton x-100. Next, the sections were blocked with 5% BSA. They were then incubated in primary antibody overnight at 4° C.: anti-F4/80 (1:50, Biolegend), anti-pSTAT6 (1:50, Cell Signaling), or anti-C/EBPβ (1:50, Santa Cruz). The sections were washed with PBS and then incubated with secondary antibodies for 1 h at room temperature. The sections were then stained with DAPI (1 μg/mL) and coverslipped with DABCO. Slides were imaged using a Zeiss LSM 510 Confocal microscope (Zeiss, Peabody, Mass.). For quantitative analysis, the number of positive cells was manually counted in six random fields of view per section. CD31 staining was performed according to standard methodology. Slides were imaged on a Nikon ECLIPSE E600 microscope (Nikon, Melville, N.Y.) at 200× magnification (10 fields per section). The integrated optical density (IOD) of CD31 was quantified using Image-Pro Plus software.
(§3) Macrophages or T cells were isolated from 4T1 tumors from mice sacrificed at 6 weeks post implantation or from EO771 tumors 5 weeks post implantation, using EasySep™ Mouse PE Positive Selection Kit (Stem Cell Technologies, Vancouver, BC). For cell isolation, 1×10^7-1×10^8 cells were incubated with 20 μL PE conjugated anti-F4/80 (Biolegend) for macrophages or 20 μL PE conjugated anti-CD3 for T cells and 50 μL microbeads. The T cells and macrophages were lysed in Qiazol and used for RT-PCR analysis. For ChIP assays, 5-10×10^6 macrophages were fixed in 1% formaldehyde.

4T1 tumors = assay: 4T1 breast tumor model in BALB/c mice; type: in vivo
Protocol: as §1
The tumor draining lymph nodes and tumors were collected, and cell populations were analyzed using flow cytometry. Briefly, cells were stained with anti-CD3 FITC, anti-CD4 APC or anti-CD8 APC, and anti-CD25 PE (Biolegend) in PBS containing 2% FBS for 30 min at 4° C. Samples were washed twice with staining buffer and analyzed by flow cytometry using a BD FACS flow cytometer and CXP software version 2.2 (BD Biosciences, San Jose, Calif.). Data were collected for 20,000 live events per sample.
as §2, §3
Macrophages were fixed in 1% formaldehyde. Excess formaldehyde was quenched with glycine, and the cells were collected in PBS by scraping. The cells were lysed (0.5% IGEPAL, 4 mM HEPES), and the nuclei were resuspended in nuclear lysis buffer (1% SDS, 10 mM EDTA, and 50 mM Tris, pH 8.1). The DNA was sheared by sonication using a Diagnode Bioruptor Pico (Diagenode, Denville, N.J.) for 25 cycles of 30 s on/30 s off. Then 8 μg chromatin was diluted 1:10 (0.01% SDS, 1.1% Triton X-100, 1.2 mM EDTA, 16.7 mM Tris-HCl, pH 8.1, 167 mM NaCl), and 2% of the input was removed from each sample and saved for analysis. Anti-H3K27m3 (Abcam) was added to each sample along with 20 μL of protein A+G magnetic beads (Millipore), and the samples were incubated overnight at 4° C. The beads were washed with low salt, high salt, LiCl, and TE wash buffers sequentially, and the DNA was eluted off the beads with Proteinase K at 62° C. for 2 h (elution buffer: 200 mM NaCl, 1% SDS and 50 mM Tris). The DNA was then analyzed by qPCR.

4T1 cells [1] = assay: Proliferation, Ki67 staining; type: cell-based, mouse; conditions: 24 h
Protocol: For Ki67 staining, 4T1 and EO771 tumor cells were seeded into 6 well plates and cultured in SF DMEM overnight. They were then treated with various concentrations of emodin (0-50 μM) for 24 h. The cells were resuspended with trypsin plus EDTA and fixed with 1% paraformaldehyde. The cells were then permeabilized with 0.25% Triton X-100 and stained with anti-Ki67 […] (Abcam). The cells were washed and incubated with goat anti-rabbit Alexa 488 (Invitrogen, Eugene, Oreg.). After washing, the samples were analyzed by flow cytometry using a BD FACS flow cytometer and CXP software version 2.2. Data were collected for 10,000 live events per sample.

4T1 cells [2] = assay: Macrophage migration toward conditioned medium of emodin-treated tumor cells; type: cell-based, mouse; conditions: increasing concentrations of emodin, 24 h treatment
Protocol: EO771 or 4T1 cells were treated with 0-50 μM emodin for 24 h. The cells were then washed multiple times with PBS, further cultured, and TCM was collected. The TCM was placed in the bottom chamber of transwell inserts, and 2×10^5 macrophages were seeded into the top chamber in SF DMEM. The cells were incubated at 37° C. with 5% CO2 for 4 h. The membranes were then fixed with 4% paraformaldehyde for 10 min. The cells were removed from the top chamber using cotton swabs, and the cells on the bottom chamber were stained with DAPI (1 μg/mL). The inserts were then cut out, mounted onto slides, and imaged under a Nikon Eclipse E-600 fluorescence microscope (Nikon Inc. Melville, N.Y.) at 20× magnification (5 fields/insert). DAPI stained cells were quantified using ImagePro Plus software.

[3] = 40 mg/kg IP once daily from Day 1

## Cc1cc(O)c2c(c1)C(=O)c1cc(O)cc(O)c1C2=O [emodin]
EO771 tumors; [3]
  primary tumor growth: significant inhibition
  tumor weight at the endpoint: significant inhibition
EO771 tumors; F4/80+ cells from tumors, qPCR
  M1 marker (iNOS) expression in TAMs: significantly higher
  M2 marker (Arg1 and CD206) expression in TAMs: significantly lower
EO771 tumors; experimental endpoint, 40 mg/kg IP
  reduction of the number of tumor infiltrating macrophages (F4/80): 70%
EO771 tumors; microvessel density, 5 weeks post injection
  CD31 staining in tumors, relative to control: ~50%
EO771 tumors; qPCR, without statistical significance
  expression of inflammatory cytokines IL1β and TNFα in TAMs: higher expression levels
4T1 tumors; [3]
  primary tumor growth: significant inhibition
  tumor weight at the endpoint: significant inhibition
4T1 tumors; 26 days post implantation
  fraction of macrophages positive for pSTAT6 and C/EBPβ: significantly reduced
4T1 tumors; 26 days post implantation, tumor size not different
  number of macrophages in tumors: significantly reduced
4T1 tumors; ChIP-qPCR
  H3K27m3 levels on the IRF4 promoter in TAMs: significantly increased
4T1 tumors; experimental endpoint, RT-qPCR
  expression of IRF4 in TAMs: significantly decreased
  expression of JMJD3 in TAMs: significantly decreased
4T1 tumors; flow cytometry, CD25
  activated CD4+ and CD8+ T cells in draining lymph nodes: increased
4T1 tumors; qPCR
  IFNγ expression in CD3+ T cells vs control mice: two-fold increase
4T1 cells [1]
  concentrations with no significant effect on cell proliferation: less than 50 μM
4T1 cells [2]
  macrophage migration toward TCM from emodin-treated tumor cells: decrease in macrophage migration
